In ChEMBL document CHEMBL5537143, “Synthesis and antimicrobial properties of guanidine-functionalized labdane type diterpenoids” (Eur J Med Chem, 2024):
Values after ≈ are worked out from the molar mass of the structure shown.

Key:
[1] = Acute toxicity in zebrafish embryo assessed as mortality rate at 16 microg/ml preincubated with compound for 24 hrs and measured after 24 hrs post fertilization; parameters: species or system Danio rerio; details: in vivo, at 16 µg/mL
[2] = Acute toxicity in zebrafish embryo assessed as mortality rate at 32 microg/ml preincubated with compound for 24 hrs and measured after 48 to 72 hrs post fertilization; parameters: species or system Danio rerio; details: in vivo, at 32 µg/mL
Pseudomonas aeruginosa [3] = test: Antimicrobial activity against Pseudomonas aeruginosa PAO1 assessed as inhibition of microbial growth at 128 microg/ml incubated for 24 hrs by broth-microdilution assay relative to control; type: functional
Staphylococcus aureus [4] = test: Antimicrobial activity against Staphylococcus aureus 29213 assessed as inhibition of microbial growth incubated for 24 hrs by broth-microdilution assay; type: functional
Staphylococcus aureus [5] = test: Antimicrobial activity against methicillin resistant Staphylococcus aureus 43300 assessed as inhibition of microbial growth incubated for 24 hrs by broth-microdilution assay; type: functional; details: read-out: MIC
[6] = system: Staphylococcus epidermidis; test: Antimicrobial activity against Staphylococcus epidermidis ATCC 12228 assessed as inhibition of microbial growth incubated for 24 hrs by broth-microdilution assay; type: functional; details: Staphylococcus epidermidis, ATCC 12228, read-out: MIC
[7] = system: Staphylococcus epidermidis; test: Antimicrobial activity against Staphylococcus epidermidis ATCC 35984 assessed as inhibition of microbial growth incubated for 24 hrs by broth-microdilution assay; type: functional; details: Staphylococcus epidermidis, ATCC 35984, read-out: MIC
Klebsiella pneumoniae [8] = test: Antimicrobial activity against Klebsiella pneumoniae ATCC 13883 assessed as inhibition of microbial growth incubated for 24 hrs by broth-microdilution assay; type: functional; details: read-out: MIC
Klebsiella pneumoniae [9] = test: Antimicrobial activity against Klebsiella pneumoniae ATCC BAA1705 assessed as inhibition of microbial growth incubated for 24 hrs by broth-microdilution assay; type: functional; details: read-out: MIC
Klebsiella pneumoniae [10] = test: Antimicrobial activity against Carbapenem -resistant Klebsiella pneumoniae ATCC 13883 assessed as inhibition of microbial growth incubated for 24 hrs by broth-microdilution assay; type: functional
Klebsiella pneumoniae [11] = test: Antimicrobial activity against Carbapenem-resistant Klebsiella pneumoniae ATCC BAA1705 assessed as inhibition of microbial growth incubated for 24 hrs by broth-microdilution assay; type: functional
Pseudomonas aeruginosa [12] = test: Antimicrobial activity against Pseudomonas aeruginosa 27853 assessed as inhibition of microbial growth at 128 microg/ml incubated for 24 hrs by broth-microdilution assay relative to control; type: functional
Candida albicans [13] = test: Antifungal activity against Candida albicans ATCC 90028 assessed as reduction in fungal growth incubated for 48 hrs by CLSI based analysis; type: functional; details: read-out: MIC
Staphylococcus aureus [14] = test: Antimicrobial activity against Staphylococcus aureus ATCC 29213 assessed as inhibition of microbial growth incubated for 24 hrs by broth-microdilution assay; type: functional; details: Staphylococcus aureus, ATCC 29213, read-out: MIC100
Staphylococcus aureus [15] = test: Antimicrobial activity against Staphylococcus aureus ATCC 43300 assessed as inhibition of microbial growth incubated for 24 hrs by broth-microdilution assay; type: functional; details: Staphylococcus aureus, ATCC 43300, read-out: MIC100
Pseudomonas aeruginosa [16] = test: Antimicrobial activity against Pseudomonas aeruginosa ATCC 27853 assessed as inhibition of microbial growth incubated for 24 hrs by broth-microdilution assay; type: functional; details: Pseudomonas aeruginosa, ATCC 27853
Pseudomonas aeruginosa [17] = test: Antimicrobial activity against Pseudomonas aeruginosa PAO1 assessed as inhibition of microbial growth incubated for 24 hrs by broth-microdilution assay; type: functional
Candida albicans [18] = test: Antifungal activity against Candida albicans ATCC 10231 assessed as reduction in fungal growth incubated for 48 hrs by CLSI based analysis; type: functional; details: read-out: MIC100
Staphylococcus aureus [19] = test: Synergistic antimicrobial activity against methicillin resistant Staphylococcus aureus 43300 assessed as inhibition of microbial growth incubated for 24 hrs in presence of Oxacillin by checkerboard assay; type: functional; details: read-out: MIC100
Klebsiella pneumoniae [20] = test: Synergistic antimicrobial activity against Klebsiella pneumoniae ATCC BAA1705 assessed as inhibition of microbial growth incubated for 24 hrs in presence of Imipenem by checkerboard assay; type: functional; details: read-out: MIC100
Candida albicans [21] = test: Synergistic antifungal activity against Candida albicans ATCC 10231 assessed as reduction in fungal growth incubated for 48 hrs in presence of Voriconazole by CLSI based analysis; type: functional; details: read-out: MIC100
Staphylococcus aureus [22] = test: Synergistic antimicrobial activity against methicillin resistant Staphylococcus aureus 43300 assessed as Oxacillin MIC incubated for 24 hrs by checkerboard assay; type: functional; details: read-out: MIC100
Klebsiella pneumoniae [23] = test: Synergistic antimicrobial activity against Klebsiella pneumoniae ATCC BAA1705 assessed as Imipenem MIC incubated for 24 hrs by checkerboard assay; type: functional; details: read-out: MIC100
Candida albicans [24] = test: Synergistic antifungal activity against Candida albicans ATCC 10231 assessed as Voriconazole MIC incubated for 48 hrs by CLSI based analysis; type: functional; details: read-out: MIC100
Staphylococcus aureus [25] = test: Synergistic antimicrobial activity against methicillin resistant Staphylococcus aureus 43300 assessed as fractional inhibitory concentration index incubated for 24 hrs in presence of Oxacillin by checkerboard assay; type: functional
Klebsiella pneumoniae [26] = test: Synergistic antimicrobial activity against Klebsiella pneumoniae ATCC BAA1705 assessed as fractional inhibitory concentration index incubated for 24 hrs in presence of Imipenem by checkerboard assay; type: functional
Candida albicans [27] = test: Synergistic antifungal activity against Candida albicans ATCC 10231 assessed as fractional inhibitory concentration index incubated for 48 hrs in presence of Voriconazole by CLSI based analysis; type: functional
[28] = Acute toxicity in zebrafish embryo assessed as mortality rate at 32 microg/ml preincubated with compound for 24 hrs and measured after 24 hrs post fertilization; parameters: species or system Danio rerio; details: in vivo, at 32 µg/mL
[29] = Acute toxicity in zebrafish embryo assessed as mortality rate at 4 microg/ml preincubated with compound for 24 hrs and measured after 48 to 72 hrs post fertilization; parameters: species or system Danio rerio; details: in vivo, at 4 µg/mL
[30] = Acute toxicity in zebrafish embryo assessed as mortality rate at 8 microg/ml preincubated with compound for 24 hrs and measured after 48 to 72 hrs post fertilization; parameters: species or system Danio rerio; details: in vivo, at 8 µg/mL
[31] = Acute toxicity in zebrafish embryo assessed as mortality rate at 16 microg/ml preincubated with compound for 24 hrs and measured after 48 to 72 hrs post fertilization; parameters: species or system Danio rerio; details: in vivo, at 16 µg/mL
[32] = Acute toxicity in zebrafish embryo assessed as mortality rate at 0.7 microg/ml preincubated with compound for 24 hrs and measured after 48 to 72 hrs post fertilization; parameters: species or system Danio rerio; details: in vivo, at 0.7 µg/mL
[33] = Acute toxicity in zebrafish embryo assessed as mortality rate at 2 microg/ml preincubated with compound for 24 hrs and measured after 48 to 72 hrs post fertilization; parameters: species or system Danio rerio; details: in vivo, at 2 µg/mL
[34] = Acute toxicity in zebrafish embryo preincubated with compound for 24 hrs and measured after 24 hrs post fertilization; parameters: species or system Danio rerio; details: in vivo
[35] = Acute toxicity in zebrafish embryo preincubated with compound for 24 hrs and measured after 48 to 96 hrs post fertilization; parameters: species or system Danio rerio; details: in vivo

Question: Which mortality at 24 h, 16 microg/ml [1] does the source give for `CC1(C)CCC[C@]2(C)[C@H]3CC[C@@](C)(CC(=O)NC(=N)N)O[C@]3(C)CC[C@@H]12` here?
Answer: 10%

Question: And the mortality at 24 h, 32 microg/ml [2]?
Answer: 100%

Question: What about the inhibition at 128 µg/mL (Pseudomonas aeruginosa [3]) of the same molecule?
Answer: 65%

Question: And the MIC (Staphylococcus aureus [4])?
Answer: 4 µg/mL

Question: What about the MIC (Staphylococcus aureus [5]) of the same molecule?
Answer: 4 µg/mL

Question: What about the MIC [6] of the same molecule?
Answer: 4 µg/mL

Question: And the MIC [7]?
Answer: 4 µg/mL

Question: And the MIC (Klebsiella pneumoniae [8])?
Answer: 16 µg/mL

Question: What about the MIC (Klebsiella pneumoniae [9]) of the same molecule?
Answer: 32 µg/mL

Question: What about the MIC (Klebsiella pneumoniae [10]) of the same molecule?
Answer: 32 µg/mL

Question: What about the MIC (Klebsiella pneumoniae [11]) of the same molecule?
Answer: 32 µg/mL

Question: And the inhibition at 128 µg/mL (Pseudomonas aeruginosa [12])?
Answer: 50%

Question: What about the MIC (Candida albicans [13]) of the same molecule?
Answer: 16 µg/mL (≈ 44 µM)

Question: And the MIC (Staphylococcus aureus [14])?
Answer: 8 µg/mL

Question: And the MIC (Staphylococcus aureus [15])?
Answer: 8 µg/mL

Question: What about the MIC50 (Pseudomonas aeruginosa [16]) of the same molecule?
Answer: 128 µg/mL

Question: And the MIC65 (Pseudomonas aeruginosa [17])?
Answer: 128 µg/mL

Question: And the MIC (Candida albicans [18])?
Answer: 16 µg/mL (≈ 44 µM)

Question: What about the MIC (Staphylococcus aureus [19]) of the same molecule?
Answer: 2 µg/mL

Question: What about the MIC (Klebsiella pneumoniae [20]) of the same molecule?
Answer: 16 µg/mL

Question: What about the MIC (Candida albicans [21]) of the same molecule?
Answer: 2 µg/mL

Question: And the MIC (Staphylococcus aureus [22])?
Answer: 0.5 µg/mL

Question: And the MIC (Klebsiella pneumoniae [23])?
Answer: 2 µg/mL

Question: And the MIC (Candida albicans [24])?
Answer: 0.125 µg/mL

Question: What about the “fractional inhibitory concentration index (FICI)” value (Staphylococcus aureus [25]) of the same molecule?
Answer: 0.55

Question: What about the “fractional inhibitory concentration index (FICI)” value (Klebsiella pneumoniae [26]) of the same molecule?
Answer: 0.6

Question: What about the “fractional inhibitory concentration index (FICI)” value (Candida albicans [27]) of the same molecule?
Answer: 0.129

Question: What about the mortality at 24 h, 32 microg/ml [28] of the same molecule?
Answer: 5%

Question: What about the mortality at 4 microg/ml [29] of the same molecule?
Answer: 0%

Question: And the mortality at 24 h, 8 microg/ml [30]?
Answer: 0%

Question: What about the mortality at 16 microg/ml [31] of the same molecule?
Answer: 100%

Question: And the mortality at 24 h, 0.7 microg/ml [32]?
Answer: 5%

Question: What about the mortality at 2 microg/ml [33] of the same molecule?
Answer: 0%

Question: And the LC50 at 24 h [34]?
Answer: 93.4 µg/mL (≈ 257 µM)

Question: What about the LC50 [35] of the same molecule?
Answer: 11.5 µg/mL (≈ 31.6 µM)
